From US6407248B1, “α-unsaturated amines, their production and use” (Takeda Chemical Industries, Ltd., priority 1987, dated 2002)

tested on: Brown Planthoppers (Nilaparvata lugens); experiment: Effect against brown planthoppers (foliar spray on rice seedlings); type: in vivo; conditions: Nilaparvata lugens, foliar, 168 h, read-out: % Mortality after 7 days
Experimental: Effect Against Brown Planthoppers (Nilaparvata lugens)
An emulsifiable concentrate of the compound of the invention, prepared in the same manner as Example 112 below, was diluted with water to a concentration of 500 ppm and sprayed over the stems and leaves of rice seedlings in the 2-leaf stage at the rate of 10 ml per paper pot. Water was put in test tubes and the treated rice seedlings were placed therein. Then, 10 brown planthopper larvae were released in each tube, which was then capped with an aluminum cap. The test tubes were maintained in an incubator at 25° C. and the dead insects were counted 7 days after release. The % mortality was calculated using the following formula. [formula]

Compound	mortality at 500 µg/mL
CNC(=C[N+](=O)[O-])N(C)Cc1cnc(Cl)s1 [Compound 102, 1-[N-(2-Chloro-5-thiazolylmethyl)-N-methyl]amino-1-methylamino-2-nitroethylene]	100%
CCNC(=C[N+](=O)[O-])N(C)Cc1ccc(Cl)nc1 [Compound 80, 1-[N-(6-Chloro-3-pyridylmethyl)-N-methyl]amino-1-ethylamino-2-nitroethylene]	100%
CN(C)C(=C[N+](=O)[O-])NCc1ccc(Cl)nc1 [Compound 46, 1-(6-Chloro-3-pyridylmethyl)amino-1-dimethylamino-2-nitroethylene]	100%
CNC(=C[N+](=O)[O-])N(C)Cc1ccc(C)nc1 [Compound 97, 1-Methylamino-1-[N-methyl-N-(6-methyl-3-pyridyl-methyl)]amino-2-nitroethylene]	100%
CN(Cc1ccc(Br)nc1)C(N)=C[N+](=O)[O-] [Compound 129, 1-Amino-1-[N-(6-bromo-3-pyridylmethyl)-N-methyl]amino-2-nitroethylene]	100%
CNC(=C[N+](=O)[O-])NCc1ccc(Br)nc1 [Compound 118, 1-N-(6-Bromo-3-pyridylmethyl)amino-1-methylamino-2-nitroetylene]	100%
CCN(Cc1ccc(Cl)nc1)C(=C[N+](=O)[O-])N(C)C=O [Compound 111, 1-[N-(6-Chloro-3-pyridylmethyl)-N-ethyl]amino-1-(N-formyl-N-methyl)amino-2-nitroethylene]	100%
CCN(Cc1ccc(Br)nc1)C(=C[N+](=O)[O-])N(C)C=O [Compound 126, 1-[N-(6-Bromo-3-pyridylmethyl)-N-ethyl]amino-1-(N-formyl-N-methyl)amino-2-nitroethylene]	100%

same assay, conditions: Nilaparvata lugens, foliar, 168 h; emulsifiable concentrate diluted with water to 500 ppm, sprayed on rice seedlings (2-leaf stage), 10 ml per paper pot; 10 larvae per tube; 25° C.; dead insects counted 7 days after release; read-out: % Mortality after 7 days

Compound	mortality at 500 µg/mL
CCCN(C(=C[N+](=O)[O-])NC)c1ccc(Cl)nc1 [Compound 91, 1-[N-(6-Chloro-3-pyridyl)-N-n-propyl]amino-1-methyl-amino-2-nitroethylene]	100%
CNC(=C[N+](=O)[O-])N(C)Cc1cnccn1 [Compound 73, 1-Methylamino-1-[N-methyl-N-(2-pyrazinyl)methyl]amino-2-nitroethylene]	100%
CCCNC(=C[N+](=O)[O-])N(C)c1ccc(Cl)nc1 [Compound 95, 1-[N-(6-Chloro-3-pyridyl)-N-methyl]amino-1-n-propyl-amino-2-nitroethylene]	100%

same assay, conditions: emulsifiable concentrate diluted with water to 500 ppm, sprayed on rice seedlings (2-leaf stage), 10 ml per paper pot; 10 larvae per tube; 25° C.; dead insects counted 7 days after release

Compound	% Mortality after 7 days
CNC(=C[N+](=O)[O-])N(C)Cc1cccnc1 [Compound 26, 1-Methylamino-1-(N-methyl-N-3-pyridylmethyl)amino-2-nitroethylene]	100%
CNC(=C[N+](=O)[O-])N(Cc1cccnc1)N(C)C [Compound 41, 1-[2,2-Dimethyl-1-(3-pyridylmethyl)]hydrazino-1-methylamino-2-nitroethylene]	100%
CNC(=C[N+](=O)[O-])N(CCOC)Cc1cccnc1 [Compound 35, 1-Methyl-amino-1-[N-(2-methoxyethyl)-N-(3-pyridylmethyl)]amino-2-nitroethylene]	100%
CC(C)NC(=C[N+](=O)[O-])N(C)Cc1cccnc1 [Compound 37, 1-iso-Propylamino-1-[N-methyl-N-(3-pyridylmethyl)]-amino-2-nitroethylene]	100%

tested on: not given; experiment: not given; conditions: not given

melting point	Compound
177 to 178 °C (dec.)	NC(=C[N+](=O)[O-])NCc1cccnc1
97 to 98 °C	CCCCCNC(=C[N+](=O)[O-])NCc1cccnc1
110 to 112 °C	CCCCNC(=C[N+](=O)[O-])NCc1cccnc1
161 to 163 °C	O=[N+]([O-])C=C(NCCO)NCc1cccnc1
164 to 165 °C	O=[N+]([O-])C=C(NCc1cccnc1)NCC(F)(F)F
141 to 143 °C	O=[N+]([O-])C=C(NCc1cccnc1)NCc1cccnc1
217 to 218 °C	O=[N+]([O-])C=C(NCc1cccnc1)Nc1ccccc1
93 to 94 °C	CCCSCCNC(=C[N+](=O)[O-])NCc1cccnc1
129 to 130 °C	CSC(=C[N+](=O)[O-])NCc1cccnc1
102 to 103 °C	O=[N+]([O-])C=C(NCc1cccnc1)N1CCOCC1
96 to 98 °C	COC(CNC(=C[N+](=O)[O-])NCc1cccnc1)OC
148 to 150 °C	CC(C)NC(=C[N+](=O)[O-])NCc1cccnc1
